Experimental data from article PMC9785278, “3-(1,2,3-Triazol-4-yl)-β-Carbolines and 3-(1H-Tetrazol-5-yl)-β-Carbolines: Synthesis and Evaluation as Anticancer Agents” (Pharmaceuticals, 2022).

Key:
HCT116 cells [1] = assay: SRB antiproliferative assay, HCT116 (wt p53); format: cell-based; settings: Homo sapiens, HCT-116, 48 h of treatment, mean ± SEM
Excerpt: (§1) Human colorectal adenocarcinoma HCT116 cell lines expressing p53 and its p53-null isogenic derivative (HCT116 p53^−/−) were provided by B. Vogelstein (The Johns Hopkins Kimmel Cancer Center, Baltimore, MD, USA). Human colorectal adenocarcinoma SW837, HT29, pancreatic carcinoma PANC-1, breast adenocarcinoma MCF-7, hepatocarcinoma HEPG2, melanoma A375, normal human foreskin fibroblasts HFF-1, and normal human colon CCD-18Co cell lines were purchased from ATCC (Rockville, MD, USA). The cancer cell lines were routinely cultured with RPMI-1640 medium from Biowest (HCT116, HCT116 p53^−/−, SW837, HT29, A375, MCF-7, HEPG-2, and […]) or DMEM with 5% glucose (HFF-1) and supplemented with 10% fetal bovine serum from Gibco (Alfagene, Lisboa, Portugal). All cells were maintained in a humidified incubator at 37 °C and 5% CO2.
(§2) Human cell lines were seeded in 96-well plates at a density of 5.0 × 10^3 (HCT116 p53 ^−/−, HCT116 wt, HT29, SW837, CCD-18Co, HFF-1, and MCF-7 cell lines) or 4.5 × 10^3 (A375, HEPG2 and PANC-1 cell lines) cells per well, for 24 h. Cells were treated with the appropriate compound, with serial dilutions ranging from 0.2 to 50 µM, for 48 h. Following the incubation, the effects on cell proliferation were evaluated through the SRB assay as stated by Ramos et al.. The IC50 values were determined using the software GraphPad Prism version 9.0.

HCT116 p53−/− cells = assay: SRB antiproliferative assay, HCT116 p53−/−; format: cell-based; settings: Homo sapiens, HCT-116, 48 h of treatment, p53 knockout, mean ± SEM
Excerpt: as §1, §2

SW837 cells = assay: SRB antiproliferative assay, SW837; format: cell-based; settings: Homo sapiens, 48 h of treatment, mean ± SEM
Excerpt: as §1, §2

HT29 cells = assay: SRB antiproliferative assay, HT29; format: cell-based; settings: Homo sapiens, HT-29, 48 h of treatment, mean ± SEM
Excerpt: as §1, §2

CCD-18Co cells = assay: SRB cytotoxicity assay, normal colon CCD-18Co; format: cell-based; settings: 48 h of treatment, normal human colon cell line, mean ± SEM
Excerpt: as §1, §2

[2] = test system: ovarian carcinoma (OVCAR-3); parameters: method as in PMID 31247374; settings: cited from earlier work
leukemia (K-562) = test system: leukemia (K-562); parameters: method as in PMID 31247374; settings: cited from earlier work
[3] = test system: renal adenocarcinoma (786-0); parameters: method as in PMID 31247374; settings: cited from earlier work
[4] = test system: breast adenocarcinoma (MCF-7); parameters: method as in PMID 31247374; settings: cited from earlier work
HFF-1 cells = assay: SRB assay, normal foreskin fibroblasts HFF-1; format: cell-based; settings: 48 h of treatment, normal human foreskin fibroblasts, mean ± SEM
Excerpt: as §1, §2

PANC-1 cells = assay: SRB antiproliferative assay, PANC-1; format: cell-based, human; settings: 48 h of treatment, mean ± SEM
Excerpt: as §1, §2

A375 cells = assay: SRB antiproliferative assay, A375; format: cell-based, human; settings: 48 h of treatment, mean ± SEM
Excerpt: as §1, §2

HEPG2 cells = assay: SRB antiproliferative assay, HEPG2; format: cell-based, human; settings: 48 h of treatment, mean ± SEM
Excerpt: as §1, §2

MCF-7 cells = assay: SRB antiproliferative assay, MCF-7; format: cell-based, human; settings: 48 h of treatment, mean ± SEM
Excerpt: as §1, §2

HCT116 cells [5] = assay: Annexin-V apoptosis assay, HCT116; format: cell-based, human; settings: HCT116, 4.5 and 9.0 μM, 48 h, flow cytometry PI/Annexin-V
Description: The analysis of apoptotic cell death was performed essentially as described by Ramos et al.. Briefly, 1.5 × 10^5 HCT116 cells/well were seeded in 6-well plates, allowed to adhere overnight, and then treated with 4.5 and 9.0 μM of compound 1a. After 48 h of treatment, cells were stained using the Annexin V-FITC Apoptosis Detection Kit I from BD Biosciences (Enzifarma, Porto, Portugal), according to the manufacturer’s instructions. The AccuriTM C6 flow cytometer and the BD Accuri C6 software (BD Biosciences) were used.

Row | Compound | IC50 (HCT116 cells [1]) [µM] | IC50 (HCT116 p53−/− cells) [µM] | IC50 (SW837 cells) [µM] | IC50 (HT29 cells) [µM] | melting point [°C] | IC50 (CCD-18Co cells) [µM] | also measured
1 | Clc1ccc(-n2cc(-c3cc4c([nH]c5ccccc54)c(-c4ccccc4)n3)nn2)cc1 [13a, 3-(1-(p-Chlorophenyl)-1H-1,2,3-triazol-4-yl)-1-phenyl-β-carboline] | 39 ± 2.16 | 43 ± 0.82 | > 50 | > 50 | 207.5 to 207.9 | > 50 | –
2 | Fc1ccc(-c2nc(-c3nnnn3Cc3ccccc3)cc3c2[nH]c2ccccc23)cc1 [1c] | 3.4 ± 0.16 | 3.3 ± 0.73 | 29 ± 3.74 | 9.6 ± 1.18 | – | 7.5 ± 0.16 | IC50 [2]: < 1 µM; IC50 (leukemia (K-562)): < 1 µM; IC50 [3]: < 1 µM; IC50 [4]: < 1 µM
3 | COc1ccc(-c2nc(-c3nnnn3Cc3ccccc3)cc3c2[nH]c2ccccc23)cc1 [1b] | 4.3 ± 0.08 | 4.2 ± 0.31 | 25 ± 1.63 | 5.9 ± 1.19 | – | 3.4 ± 0.29 | –
4 | Fc1ccc(-c2nc(-c3nnn[nH]3)cc3c2[nH]c2ccccc23)cc1 [1d] | – | – | – | – | – | – | IC50 [2]: 0.27 µM
5 | COc1cc([C@@H]2c3cc4c(cc3[C@@H](O[C@@H]3O[C@@H]5CO[C@@H](C)O[C@H]5[C@H](O)[C@H]3O)[C@H]3COC(=O)[C@H]23)OCO4)cc(OC)c1O [Etoposide, reference compound] | 0.6 ± 0.05 | 0.9 ± 0.07 | 0.9 ± 0.07 | 0.7 ± 0.1 | – | 0.5 ± 0.07 | IC50 (HFF-1 cells): 1.1 ± 0.01 µM; IC50 (PANC-1 cells; Homo sapiens, PANC-1, 48 h): 3.1 ± 0.05 µM; IC50 (A375 cells; Homo sapiens, A-375, 48 h): 0.9 ± 0.07 µM; IC50 (HEPG2 cells; Homo sapiens, HepG2, 48 h): 1.7 ± 0.2 µM; IC50 (MCF-7 cells; Homo sapiens, MCF7, 48 h): 2.1 ± 0.03 µM
6 | O=[N+]([O-])c1cccc(-c2nc(-c3cn(-c4ccc(Cl)cc4)nn3)cc3c2[nH]c2ccccc23)c1 [13e, 3-(1-(p-Chlorophenyl)-1H-1,2,3-triazol-4-yl)-1-(m-nitrophenyl)-β-carboline] | > 50 | > 50 | > 50 | > 50 | 237.3 to 239.1 | > 50 | –
7 | c1ccc(Cn2nnnc2-c2cc3c([nH]c4ccccc43)c(-c3ccccc3)n2)cc1 [1a] | 4.5 ± 0.05 | 4.6 ± 0.43 | 44 ± 0.82 | 9 ± 0.55 | – | 26 ± 0.82 | IC50 (HFF-1 cells): 29 ± 1.5 µM; IC50 (PANC-1 cells; listed as C00001): 4 ± 0.4 µM; IC50 (PANC-1 cells; Homo sapiens, PANC-1, 48 h): < 8 µM; IC50 (A375 cells; listed as C00001): 5.6 ± 0.2 µM; IC50 (A375 cells; Homo sapiens, A-375, 48 h): < 8 µM; IC50 (HEPG2 cells; listed as C00001): 7.5 ± 1.27 µM; IC50 (HEPG2 cells; Homo sapiens, HepG2, 48 h): < 8 µM; IC50 (MCF-7 cells; listed as C00001): 7.7 ± 0.7 µM; IC50 (MCF-7 cells; Homo sapiens, MCF7, 48 h): < 8 µM; Apoptotic cell death (Annexin-positive cells) (HCT116 cells [5]): associated with apoptotic cell death; IC50 [4]: 4.4 µM
8 | Clc1ccc(-n2cc(-c3cc4c([nH]c5ccccc54)c(-c4ccccc4Cl)n3)nn2)cc1 [13f, 3-(1-(p-Chlorophenyl)-1H-1,2,3-triazol-4-yl)-1-(o-chlorophenyl)-β-carboline] | > 50 | > 50 | > 50 | > 50 | 219.7 to 221.3 | > 50 | –
9 | Fc1ccc(-c2nc(-c3cn(-c4ccc(Cl)cc4)nn3)cc3c2[nH]c2ccccc23)cc1 [13b, 3-(1-(p-Chlorophenyl)-1H-1,2,3-triazol-4-yl)-1-(p-fluorophenyl)-β-carboline] | > 50 | > 50 | > 50 | > 50 | 237.3 to 238.1 | > 50 | –
10 | CN(C)c1ccc(-c2nc(-c3cn(-c4ccc(Cl)cc4)nn3)cc3c2[nH]c2ccccc23)cc1 [13d, 3-(1-(p-Chlorophenyl)-1H-1,2,3-triazol-4-yl)-1-(p-dimethylaminophenyl)-β-carboline] | > 50 | > 50 | > 50 | > 50 | 244.2 to 245.6 | > 50 | –
11 | COc1ccc(-c2nc(-c3cn(-c4ccc(Cl)cc4)nn3)cc3c2[nH]c2ccccc23)cc1 [13c, 3-(1-(p-Chlorophenyl)-1H-1,2,3-triazol-4-yl)-1-(p-methoxyphenyl)-β-carboline] | 32 ± 2.45 | > 50 | > 50 | > 50 | 219.7 to 221.3 | > 50 | –

Second part, led by results:

Row | IC50 (HCT116 cells [1]) [µM] | IC50 (HCT116 p53−/− cells) [µM] | IC50 (SW837 cells) [µM] | IC50 (HT29 cells) [µM] | melting point [°C] | Compound | IC50 (CCD-18Co cells) [µM] | also measured
12 | > 50 | > 50 | – | – | – | COC(=O)c1cc2c([nH]c3ccccc32)c(-c2ccc(OC)cc2)n1 [14b] | – | –
13 | > 50 | > 50 | – | – | – | COC(=O)c1cc2c([nH]c3ccccc32)c(-c2ccccc2Cl)n1 [14e] | – | –
14 | > 50 | > 50 | – | – | – | COC(=O)c1cc2c([nH]c3ccccc32)c(-c2ccccc2)n1 [14a] | – | –
15 | 15 ± 1.41 | 18 ± 0.47 | – | – | – | COC(=O)c1cc2c([nH]c3ccccc32)c(-c2ccc(N(C)C)cc2)n1 [14c] | – | –
16 | > 50 | > 50 | – | – | – | COC(=O)c1cc2c([nH]c3ccccc32)c(-c2cccc([N+](=O)[O-])c2)n1 [14d] | – | –
